“Also recorded” adds a separate entry of the source.
Key:
PKA = assay: CREB phosphorylation as readout of PKA activity; type: cell-based
From the text: The emerging issue is therefore how Lindane could activate CFTR Cl^- currents. One possibility would be that Lindane directly activates CFTR, but this appears unlikely because it required minutes instead of seconds to increase Cl^- conductance. […] To further explore this hypothesis, we tested the effect of Lindane on the renal proximal cell line (PCT1). […] Of particular interest, we provide several lines of evidence that the CFTR Δex10 channels remained functional in response to Lindane in PCT cells. […] These finding provide the first evidence that an agonist, e.g. Lindane, could activate CFTR Cl- current independently of PKA, raising the promise for new strategies using Lindane to restore Cl-conductance in cystic fibrosis patients with CFTR variants on PKA sites.

Sertoli cells = assay: Cell death and apoptotic features in Lindane-treated Sertoli cells; type: cell-based, mouse
Method: Autophagy was induced either by starvation or by treatment with Lindane under nutrient-rich condition. For Lindane treatment, cells were serum-starved for 2-16 hours in DMEM/Ham's F12 (1:1, GIBCO #61965-026: F12 GIBCO #31765-027) supplemented with either 1% Insulin-Transferrin-SeleniumA (GIBCO #51300-044) or 0.1% bovine serum albumin (A7030, Sigma) and treated with Lindane (50 µM, Sigma, H4500).
The ultrastructural changes caused by Lindane or starvation in Sertoli and renal cells were analysed by transmission electron microscopy, as previously described (57). […] Cell pellets were then rinsed in cacodylate buffer, postfixed in 1% OsO4 for 1 h at 4°C, dehydrated through graded ethanol washes, and embedded in epoxy resin. Oriented […] sections were obtained with diamond knives, and representative areas were chosen for ultra-thin sectioning. Thin […] sections were mounted on copper mesh grids, stained with uranyl acetate and lead citrate, and examined on a JEOL 1200 EXII electron microscope. 30-50 micrographs were taken randomly from each sample at primary magnification × 10,000.

p42^ERK2 and p44^ERK1 = assay: ERK activation by anti-phospho-ERK Western blotting of cell lysates; type: cell-based, mouse
From the text: After stripping, equal loadings of proteins were verified by reprobing the blots with anti-ERK1 (Santa Cruz Biotechnology).

Cl[C@H]1[C@H](Cl)[C@@H](Cl)[C@@H](Cl)[C@H](Cl)[C@H]1Cl [Lindane, γ-hexachlorocyclohexane]
CREB phosphorylation (PKA; Lindane treatment): dramatic phosphorylation of CREB
PKA activation (PKA; concluded from H89 experiment): did not activate PKA
dead cells (Sertoli cells; Lindane 50 µM): little if any dead cells
propidium iodide staining of vacuolated cells (Sertoli cells; Lindane 50 µM, late stages): did not stain with propidium iodide
apoptotic features (caspase 3 activation, PARP cleavage, chromatin condensation, nuclear pyknosis, mitochondria degeneration) (Sertoli cells; Lindane-treated cells): absence of several apoptotic morphological and biochemical features
cell lysis on longer exposure (Sertoli cells; exposure for four days): not associated with cell lysis
ERK stimulation in CFTR^-/- cells (p42^ERK2 and p44^ERK1; CFTR^-/- renal cells): still stimulated
duration of ERK activation (p42^ERK2 and p44^ERK1; Sertoli cells, Lindane): more than 24 h
ERK activation in Sertoli cells (p42^ERK2 and p44^ERK1; Sertoli cells, Lindane 50 µM, DDT 1.8 µM, Bϕ 90 µM, PCP 15 µM): rapid and sustained activation of both p42^ERK2 and p44^ERK1; also recorded: induced the activation of both p42^ERK2 and p44^ERK1

Source: patent publication EP1655608A1, “CFTR as a component of an autophagy signaling pathway, applications thereof to autophagic diseases, and determination of cystic fibrosis as an autophagic disease” (priority 2004, dated 2006)
